From patent US20260138973A1, “SUBSTITUTED PYRIDINES FOR USE IN TREATING OR PREVENTING INFLAMMATORY DISEASES OR DISEASES ASSOCIATED WITH AN UNDESIRABLE IMMUNE RESPONSE” (SITRYX THERAPEUTICS LIMITED, priority 2022, published 2026) come the findings set out here.

Where a name gives a salt, the structure may show the parent alone. Read-outs that look alike come from different tables or passages of the source.

The test system of data set [1] is hepatocytes. Put plainly: Hepatocyte stability assay, human. The data set is classed as in vitro ADME. The text has this:
(§1) Defrosted cryo-preserved hepatocytes (viability >70%) were used to determine the metabolic stability of a compound via calculation of intrinsic clearance (Clint; a measure of the removal of a compound from the liver in the absence of blood flow and cell binding). Clearance data are particularly important for in vitro work as they can be used in combination with in vivo data to predict the half-life and oral bioavailability of a drug.
(§2) The metabolic stability in hepatocytes assay involves a time-dependent reaction using both positive and negative controls. The cells were pre-incubated at 37° C. then spiked with test compound (and positive control); samples were taken at pre-determined time intervals and were analysed to monitor the change in concentration of the initial drug compound over 60 minutes. A buffer incubation reaction (with no hepatocytes present) acted as a negative control and two cocktail solutions, containing compounds with known high and low clearance values (verapamil/7-hydroxycoumarin and propranolol/diltiazem), acted as positive controls. • 1. The assay was run with a cell concentration of 0.5×10^6 cells/mL in Leibovitz buffer. • 2. All compounds and controls were run in duplicate. • 3. Compound concentration was 10 μM. • 4. All compounds and controls were incubated with both cells and buffer to show turnover was due to hepatic metabolism. • 5. All wells on the incubation plate had 326.7 μL of either cells or buffer added. • 6. Prior to assay, cell and buffer-only incubation plates were preincubated for 10 mins at 37° C. • 7. The assay was initiated by adding compounds, 3.3 μL of 1 mM in 10% DMSO-90% Buffer; final DMSO concentration was 0.1%. • 8. Samples were taken at regular timepoints (0, 5, 10, 20, 40, 60 min) until 60 mins. • 9. Sample volume was 40 μL and was added to 160 μL of crash solvent (acetonitrile with internal standard) and stored on ice. • 10. At the end of the assay, the crash plates were centrifuged at 3500 rpm for 20 mins at 4° C. • 11. 80 μL of clear supernatant was removed and mixed with 80 μL of deionised water before being analysed by LC-MS/MS.
(§3) Raw LC-MS/MS data was exported to, and analysed in, Microsoft Excel for determination of intrinsic clearance. The percentage remaining of a compound was monitored using the peak area of the initial concentration as 100%. Intrinsic clearance and half-life values were calculated using a graph of the natural log of percentage remaining versus the time of reaction in minutes. Half-life (min) and intrinsic clearance (Clint in μL min^−1 10^−6 cells) values were calculated using the gradient of the graph (the elimination rate constant, k) and Equations 1 and 2.

Data set [2] can be described thus: Hepatocyte stability assay, human. The data set is classed as in vitro ADME. The settings on record: cryopreserved hepatocytes; Human hepatocytes, 10 μM compound, 0.5×10^6 cells/mL; read-out: T½.
Source text: as §1, §2, §3

In a further data set the test system is NRF2. Description: DiscoverX PathHunter NRF2 translocation assay +/-GSH in U2OS cells. Particulars: for EC50: U2OS PathHunter cells, 6 hours, read-out: NRF2 activation EC50; for NRF2 activation Emax: normalised to DMF high control. Format: cell-based. On the procedure:
Potency and efficacy of compounds of formula (I) against the target of interest to activate NRF2 (nuclear factor erythroid 2-related factor 2) were determined using the PathHunter NRF2 translocation kit (DiscoverX). The NRF2 translocation assay was run using an engineered recombinant cell line, utilising enzyme fragment complementation to determine activation of the Keap1-NRF2 protein complex and subsequent translocation of NRF2 into the nucleus. Enzyme activity was quantified using a chemiluminescent substrate consumed following the formation of a functional enzyme upon PK-tagged NRF2 translocation into the nucleus.
The assay was run under both +/−GSH (glutathione) conditions to determine the sensitivity of the compounds' NRF2-activating abilities to attenuation by GSH.
Additionally, a defined concentration of DMF was used as the ‘High’ control to normalise test compound activation responses to.
U2OS PathHunter express cells were thawed from frozen prior to plating. Following plating, U2OS cells were incubated for 24 hrs (37° C./5% CO2) in commercial kit provided cell medium.
Following 24 hrs of U2OS incubation, cells were directly treated with an appropriate final concentration of compound, for −GSH conditions or, for +GSH conditions, an intermediate plate containing 6× working concentrations of compound stocks was prepared in a 6 mM working concentration of GSH solution (solubilised in sterile PBS). Following a 30 minute compound-GSH pre-incubation (37° C./5% CO2) for +GSH treatment, plated U2OS cells were incubated with an appropriate final concentration of compound and GSH.
Following compound (+/−GSH) treatment, the U2OS plates were incubated for a further 6 hours (37° C./5% CO2) before detection reagent from the PathHunter NRF2 commercial kit was prepared and added to test plates according to the manufacturer's instructions. Subsequently, the luminescence signal detection was measured in a microplate reader (PHERAstar®, BMG Labtech).
Percentage activation was calculated by normalising the sample data to the high and low controls used within each plate (+/−DMF). Percentage activation/response was then plotted against compound concentration and the 50% activation concentration (EC50) was determined from the plotted concentration-response curve.

The subject of data set [3] is hepatocytes. Put plainly: Hepatocyte stability assay, mouse. The data set is classed as in vitro ADME. The settings on record: 10 μM compound, 0.5×10^6 cells/mL.
Source text: as §1, §2, §3

The next data set deals with IL-1β. Description: THP-1 AlphaLISA IL-1β cytokine inhibition assay (differentiated THP-1 cells, LPS then nigericin). The data set is classed as cell-based. Particulars: for IC50: THP-1 cell, PMA-differentiated, LPS 24 hr + nigericin 1 hour; for effectiveness in the IL-1β assay: THP-1 cells, result in words. On the procedure: Measuring Inhibitory Effects on IL-1β Cytokine Output from THP-1s
The cytokine inhibition profiles of compounds of formula (I) were determined in a differentiated THP-1 cell assay. All assays were performed in RPMI-1640 growth medium (Gibco), supplemented with 10% fetal bovine serum (FBS; Gibco), 1% penicillin-streptomycin and 1% sodium pyruvate unless specified otherwise. The IL-1β cytokine inhibition assay was run in a background of differentiated THP-1 cells as described below. All reagents described were from Sigma-Aldrich unless specified otherwise. Compounds were prepared as 10 mM DMSO stocks.
THP-1 cells were expanded as a suspension up to 80% confluence in appropriate growth medium. Cells were harvested, suspended, and treated with an appropriate concentration of phorbol 12-myristate 13-acetate (PMA) over a 72 hr period (37° C./5% CO2).
Following 72 hrs of THP-1 cell incubation, cellular medium was removed and replaced with fresh growth media containing 1% of FBS. Working concentrations of compounds were prepared separately in 10% FBS treated growth medium and pre-incubated with the cells for 30 minutes (37° C./5% CO2). Following the 30 minute compound pre-incubation, THP-1s were treated with an appropriate concentration of LPS and the cells were subsequently incubated for a 24 hr period (37° C./5% CO2). An appropriate final concentration of Nigericin was then dispensed into the THP-1 plates and incubated for 1 hour (37° C./5% CO2) before THP-1 supernatants were harvested and collected in separate polypropylene 96-well holding plates.
Reagents from an IL-1β and IL-6 commercial kit (Perkin Elmer) were prepared and run according to the manufacturer's instructions. Subsequently, fluorescence signal detection in a microplate reader was measured (EnVision® Multilabel Reader, Perkin Elmer).
Percentage inhibition was calculated per cytokine by normalising the sample data to the high and low controls used within each plate (+/−LPS respectively). Percentage inhibition was then plotted against compound concentration and the 50% inhibitory concentration (IC50) was determined from the resultant concentration-response curve.

For a further data set, the system named is IL-6. Description: THP-1 AlphaLISA IL-6 cytokine inhibition assay (differentiated THP-1 cells, LPS then nigericin). Format: cell-based. Particulars: THP-1 cell, PMA-differentiated, LPS 24 hr + nigericin 1 hour. As for the experimental part:
The cytokine inhibition profiles of compounds of formula (I) were determined in a differentiated THP-1 cell assay. All assays were performed in RPMI-1640 growth medium (Gibco), supplemented with 10% fetal bovine serum (FBS; Gibco), 1% penicillin-streptomycin and 1% sodium pyruvate unless specified otherwise. The IL-1β cytokine inhibition assay was run in a background of differentiated THP-1 cells as described below. All reagents described were from Sigma-Aldrich unless specified otherwise. Compounds were prepared as 10 mM DMSO stocks. THP-1 cells were expanded as a suspension up to 80% confluence in appropriate growth medium. Cells were harvested, suspended, and treated with an appropriate concentration of phorbol 12-myristate 13-acetate (PMA) over a 72 hr period (37° C./5% CO2). Following 72 hrs of THP-1 cell incubation, cellular medium was removed and replaced with fresh growth media containing 1% of FBS. Working concentrations of compounds were prepared separately in 10% FBS treated growth medium and pre-incubated with the cells for 30 minutes (37° C./5% CO2). […] Subsequently, fluorescence signal detection in a microplate reader was measured (EnVision® Multilabel Reader, Perkin Elmer). Percentage inhibition was calculated per cytokine by normalising the sample data to the high and low controls used within each plate (+/−LPS respectively).
In general terms: Bead proximity is the source of the signal in Alpha formats.

Data set [4] in a line: Hepatocyte stability assay, mouse. The data set is classed as in vitro ADME. The settings on record: cryopreserved hepatocytes, 10 μM compound, 0.5×10^6 cells/mL, read-out: T½.
Source text: as §1, §2, §3

Where [5] appears, read: Human hepatocytes, 10 μM compound, 0.5×10^6 cells/mL.

Usually EC50 stands for the concentration that produces a half-maximal response. As usually defined, the IC50 is the concentration needed to halve the response being measured. As for `C=C(Cc1ccccc1Cl)C(=O)O` [2-(2-chlorobenzyl)acrylic acid, reference compound], the Clint in the data set with hepatocytes [1] (setting [5]) is recorded as 21 μL min^−1 10^−6 cells; in the data set with hepatocytes [3], 95 μL min^−1 10^−6 cells. Also, the half-life at 10 μM in data set [2] was 59 min. Also, the EC50 with NRF2 (+GSH) and in the data set with NRF2 (−GSH) was > 100 µM throughout. Also, the “NRF2 activation Emax” value in the data set with NRF2 (+GSH) is recorded as 9%; in the data set with NRF2 (−GSH), 2%. For the same compound, the half-inhibitory concentration (IC50) in the data set on IL-1β (Homo sapiens) is > 100 µM.
For `C=C(CC(=O)OCCCCCCCC)C(=O)O` [4-octyl itaconate, reference compound], the values for the Clint in the data set with hepatocytes [1] (setting [5]) and in the data set on hepatocytes [3] were 401 μL min^−1 10^−6 cells and 351 μL min^−1 10^−6 cells, respectively. For the same compound, the T½ with hepatocytes [1] (setting [5]) and in the data set with hepatocytes [3] was 4 min throughout. The EC50 with NRF2 (+GSH) was determined as 28.9 µM; in the data set with NRF2 (−GSH), 22.1 µM. For the same compound, the “NRF2 activation Emax” value in the data set on NRF2 (+GSH) turned out to be 148%; in the data set on NRF2 (−GSH) it was 165%. Also, the IC50 with IL-6 stood at 19.1 µM; in the data set with IL-1β it was 37.8 µM.
`C=C(Cc1nc(-c2ccc(OCCCC)nc2)no1)C(=O)O` [Example 1, 2-((3-(6-butoxypyridin-3-yl)-1,2,4-oxadiazol-5-yl)methyl)acrylic acid]: the EC50 in the data set with NRF2 (+GSH) worked out at 19.5 µM; in the data set with NRF2 (−GSH) it was 20.8 µM. Also, the “NRF2 activation Emax” value was 130% in the data set on NRF2 (+GSH) and 192.5% with NRF2 (−GSH). The IC50 with IL-1β (Homo sapiens) was > 100 µM. The “effectiveness in the IL-1β assay” value with IL-1β is on record as “not effective”.
Regarding `C=C(Cc1nc(-c2ncc(OCCCC)cc2Cl)no1)C(=O)O` [Example 3, 2-((3-(5-butoxy-3-chloropyridin-2-yl)-1,2,4-oxadiazol-5-yl)methyl)acrylic acid], the values for the Clint with hepatocytes [1] (setting [5]) and with hepatocytes [3] were 7.18 μL min^−1 10^−6 cells and 133 μL min^−1 10^−6 cells, respectively. In the data set with hepatocytes [1] (mouse and/or human cells, result in words), the “stability (intrinsic clearance and half-life) compared to 4-octyl itaconate and 2-(2-chlorobenzyl)acrylic acid” value was “more stable”. Besides, the half-life at 10 μM in data set [2] came out at 181 min; in data set [4], 9.27 min. For the same compound, the EC50 stood at 11.4 µM with NRF2 (+GSH) and 22.7 µM with NRF2 (−GSH). Also, the entries for the “NRF2 activation Emax” value in the data set on NRF2 (+GSH) and in the data set on NRF2 (−GSH) were 78.58% and 172.5%, respectively. The IC50 with IL-1β (Homo sapiens) came out at 2.09 µM.
Regarding `C=C(Cc1nc(-c2ncc(Oc3ccc(F)cc3)cc2Cl)no1)C(=O)O` [Example 4, 2-((3-(3-chloro-5-(4-fluorophenoxy)pyridin-2-yl)-1,2,4-oxadiazol-5-yl)methyl)acrylic acid], in the data set with NRF2 (+GSH), the EC50 came out at 15.5 µM and the “NRF2 activation Emax” value worked out at 145%. Further, in the data set with NRF2 (−GSH), the EC50 was 7.07 µM and the “NRF2 activation Emax” value is 208.56%. Moreover, the IC50 in the data set on IL-1β (Homo sapiens) worked out at 2.12 µM.
As to `C=C(Cc1nc(-c2ccc(OCCCC)cn2)no1)C(=O)O` [Example 2, 2-((3-(5-butoxypyridin-2-yl)-1,2,4-oxadiazol-5-yl)methyl)acrylic acid], the IC50 in the data set on IL-1β (Homo sapiens) is > 100 µM. Besides, the “effectiveness in the IL-1β assay” value in the data set with IL-1β is reported as “not effective”.
Regarding `COC(=O)/C=C/C(=O)O` [monomethyl fumarate, reference compound], the IC50 in the data set with IL-6 (Homo sapiens) and in the data set with IL-1β (Homo sapiens) was > 100 µM in each case.
